How the values were obtained:
Assay in all cases: greenhouse post-emergence herbicidal test
CHEAL = assay type: in vivo, Chenopodium album
How it was run: (§1)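 Combination activity judged against additive expectation by Colby, E=X+Y−(X·Y/100), from 0–100 damage ratings taken 20 days post-spray. Plants at 1–15 cm in loamy sand (69.9% sand) were sprayed with components formulated as 10% w/w emulsion concentrate in water.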

CONAR = assay type: in vivo, Convolvulus arvensis; design: key: rating on a scale from 0 to 100
How it was run: as §1

PAPRH = assay type: in vivo, Papaver rhoeas; design: key: rating on a scale from 0 to 100
How it was run: as §1

[1] = a.i. g/ha: I.1 15.6, B.67 125, 20 days after treatment
[2] = a.i. g/ha: I.1 20.8, B.67 62.5, 20 days after treatment
[3] = a.i. g/ha: I.1 31.25, B.67 125, 20 days after treatment
[4] = a.i. g/ha: I.1 31.25, B.69 25, 20 days after treatment
[5] = a.i. g/ha: I.1 62.5, B.69 25, 20 days after treatment
[6] = a.i. g/ha: I.1 62.5, B.76 225, 20 days after treatment

SMILES: O=C(O)c1cc(C2CC2)nc2onc(C3CC3)c12 [I.1]
- herbicidal activity against CHEAL found (CHEAL; a.i. g/ha: I.1 6.9, B.67 62.5, 20 days after treatment): 0%
- herbicidal activity against CHEAL found (CHEAL; a.i. g/ha: I.1 15.6, B.190 62.5, 20 days after treatment): 70%
- herbicidal activity against CHEAL found (CHEAL; [1]): 0%
- herbicidal activity against CHEAL found (CHEAL; a.i. g/ha: I.1 20.8, B.192 62.5, 20 days after treatment): 85%
- herbicidal activity against CHEAL found (CHEAL; [2]): 85%
- herbicidal activity against CHEAL found (CHEAL; [3]): 65%
- herbicidal activity against CHEAL found (CHEAL; [4]): 30%
- herbicidal activity against CHEAL found (CHEAL; a.i. g/ha: I.1 31.25, B.76 225, 20 days after treatment): 30%
- herbicidal activity against CHEAL found (CHEAL; [5]): 60%
- herbicidal activity against CHEAL found (CHEAL; [6]): 60%
- herbicidal activity against CHEAL found (CHEAL; a.i. g/ha: I.1 62.5, B.82 31.25, 20 days after treatment): 60%
- herbicidal activity against CONAR found (CONAR; 31.25 g/ha a.i.): 40
- herbicidal activity against CONAR found (CONAR; 62.5 g/ha a.i.): 60
- herbicidal activity against CONAR found (CONAR; 125 g/ha a.i.): 70
- herbicidal activity against CONAR found (CONAR; 6 days after treatment, g/ha a.i.: I.1 31.25, naptalam 50, mixture 31.25+50): 5
- herbicidal activity against CONAR found (CONAR; 6 days after treatment, g/ha a.i.: I.1 31.25, naptalam 100, mixture 31.25+100): 5
- herbicidal activity against CONAR found (CONAR; 6 days after treatment, g/ha a.i.: I.1 31.25, naptalam 200, mixture 31.25+200): 5
- herbicidal activity against CONAR found (CONAR; 6 days after treatment, g/ha a.i.: I.1 62.5, B.96 140, mixture 62.5+140): 65
- herbicidal activity against CONAR found (CONAR; 6 days after treatment, g/ha a.i.: I.1 125, naptalam 100, mixture 125+100): 70
- herbicidal activity against CONAR found (CONAR; a.i. g/ha: I.1 7.8, B.67 125, 20 days after treatment): 0%
- herbicidal activity against CONAR found (CONAR; [1]): 0%
- herbicidal activity against CONAR found (CONAR; [2]): 0%
- herbicidal activity against CONAR found (CONAR; [3]): 0%
- herbicidal activity against CONAR found (CONAR; [4]): 70%
- herbicidal activity against CONAR found (CONAR; a.i. g/ha: I.1 62.5, B.67 62.5, 20 days after treatment): 25%
- herbicidal activity against CONAR found (CONAR; a.i. g/ha: I.1 62.5, B.67 125, 20 days after treatment): 0%
- herbicidal activity against CONAR found (CONAR; [5]): 65%
- herbicidal activity against CONAR found (CONAR; [6]): 65%
- herbicidal activity against CONAR found (CONAR; a.i. g/ha: I.1 62.5, B.77 75, 20 days after treatment): 25%
- herbicidal activity against CONAR found (CONAR; a.i. g/ha: I.1 62.5, B.80 250, 20 days after treatment): 25%
- herbicidal activity against CONAR found (CONAR; application rate a.i.: I.1 31.25 g/ha, B.139 (pyroxasulfone) 12.5 g/ha, alone or as mixture (composition 1.139)): 30
- herbicidal activity against CONAR found (CONAR; application rate a.i.: I.1 31.25 g/ha, B.139 (pyroxasulfone) 25 g/ha, alone or as mixture (composition 1.139)): 30
- herbicidal activity against CONAR found (CONAR; application rate a.i.: I.1 62.5 g/ha, B.30 (imazamox) 3.75 g/ha, alone or as mixture (composition 1.030)): 25
- herbicidal activity against CONAR found (CONAR; application rate a.i.: I.1 62.5 g/ha, B.84 (paraquat-dichloride) 17.5 g/ha, alone or as mixture (composition 1.84)): 45
- herbicidal activity against CONAR found (CONAR; application rate a.i.: I.1 125 g/ha, B.113 (glyphosate) 33.75 g/ha, alone or as mixture (composition 1.113)): 80
- herbicidal activity against PAPRH found (PAPRH; 62.5 g/ha a.i.): 50
- herbicidal activity against PAPRH found (PAPRH; I.1 15.62 g/ha, B.103 15 g/ha a.i.): 30
- herbicidal activity against PAPRH found (PAPRH; I.1 15.62 g/ha, B.88 2 g/ha a.i.): 70
- herbicidal activity against PAPRH found (PAPRH; I.1 31.25 g/ha, B.103 15 g/ha a.i.): 30
- herbicidal activity against PAPRH found (PAPRH; I.1 31.25 g/ha, B.88 1 g/ha a.i.): 75
- herbicidal activity against PAPRH found (PAPRH; I.1 31.25 g/ha, B.88 2 g/ha a.i.): 75
- herbicidal activity against PAPRH found (PAPRH; I.1 31.25 g/ha, B.95 1 g/ha a.i.): 75
- herbicidal activity against PAPRH found (PAPRH; I.1 62.5 g/ha, B.57 2 g/ha a.i.): 75
- herbicidal activity against PAPRH found (PAPRH; I.1 62.5 g/ha, B.88 1 g/ha a.i.): 75
- herbicidal activity against PAPRH found (PAPRH; I.1 62.5 g/ha, B.88 2 g/ha a.i.): 75
- herbicidal activity against PAPRH found (PAPRH; I.1 62.5 g/ha, B.95 1 g/ha a.i.): 75
- herbicidal activity against PAPRH found (PAPRH; I.1 alone 31.25 g/ha a.i.): 70
- herbicidal activity against PAPRH found (PAPRH; application rate a.i.: I.1 62.5 g/ha, B.40 (imazethapyr) 7.5 g/ha, alone or as mixture (composition 1.40)): 65
- herbicidal activity against PAPRH found (PAPRH; application rate a.i.: I.1 62.5 g/ha, B.87 (carfentrazone-ethyl) 1.75 g/ha, alone or as mixture (composition 1.87)): 85
- herbicidal activity against PAPRH found (PAPRH; applied alone at 31.25 g/ha a.i.): 65

— US10881110B2, “Herbicidal compositions comprising isoxazolo[5,4-b]pyridines” (BASF SE, priority 2014, dated 2021)
